US20130239239A1, “LMCD1 CANCER MARKERS AND METHODS FOR THEIR USE” (Academia Sinica, priority 2012, published 2013)

Tests used:
[1] = test system: LMCD1 transfectants in SK-Hep1 cells; test: Wound healing assay in LMCD1 stable transfectants of SK-Hep1 cells; conditions: dose dependent
Procedure: To test the hypothesis that LMCD1 mutants play a role in cell migration regulation, three different cell migration assays for reflecting alteration of directed migration, random migration, and chemotaxis were performed. Directed migration of these SK-Hep1 transfectants was inspected by wound healing assay. For the wound healing assay, cells were seeded in a 6-well plate at a confluent density and cultured overnight to grow into a monolayer. The culture was scratched with a p200 pipette tip, and the wound was allowed to close for 20 hours. The average reduction of distance between two wound edges was calculated to evaluate the rate of wound closure. […] Cells were photographed immediately after wounding (FIG. 7a upper) and 2 hours after wounding (FIG. 7a lower), with arrows indicating protrusion of cells at the wound edge. […] Images were obtained using an Olympus BX51 fluorescence microscope or a PerkinElmer Ultra View confocal microscope (PerkinElmer Life Sciences).
The bar graph to the right of the images in FIG. 4c provides quantification of average migration results, normalized to the mock cells (±SEM).

[2] = test system: LMCD1 transfectants in SK-Hep1 cells; test: Lamellipodia formation (Arp3 staining, cell morphology) in LMCD1 transfectants; type: cell-based, human; conditions: LMCD1-E135K and LMCD1-K237R cells
Source text: Coverslips were mounted on slides using […] mounting medium with DAPI (Vector Laboratories).

LMCD1-K237R = LMCD1-K237R expression in PLC/PRF/5 cells by reverse-transcription PCR; type: cell-based, human; conditions: 10 nM 17β-estradiol
Procedure: Five independent pLKO.1 lentiviral-based shRNA clones targeting human LMCD1 (NM_014583) from The RNAi Consortium (TRC) library were tested. […] Human shRNA for RAC1 (shRac1) was also obtained from TRC library with number TRCN0000004870: 5′-[…]-3′. pLKO.1-shLuc was used as control. To generate shRNA lentiviral particles, HEK293T cells were co-transfected with a plasmid mixture (pLKO.1-puro-shRNA, pCMVΔR8.91 packaging plasmid, and pMD.G envelope plasmid) by calcium phosphate protocol. Cell medium containing viral particles was collected three times at 24-hour intervals after transfection. The virus-containing medium was aliquoted and used to infect cells or stored at −80° C. until use. Ninety-six hours after infection, cells were subjected to further experimental assays or harvested for LMCD1 or Rac1 gene expression analysis by RT-PCR or Western blotting.
(§1) Trans-well migration assays were performed as in Example 3. Expression of LMCD1-K237R in PLC/PRF/5 cells (1×10^5 cells) was induced by exposure to 10 nM 17β-estradiol. Results are provided in FIG. 4d, with some cells also being treated with the indicated shRNA. Images in FIG. 4d are representative of migration results from three independent experiments, with (+E2) and without (−E2) estradiol treatment. The migration results are quantified by bar graph in FIG. 4e (±SEM). […]

PLC/PRF/5 cells = test: Trans-well migration assay in PLC/PRF/5 cells; type: cell-based, human; conditions: 10 nM 17β-estradiol, 24 hours
Procedure: For trans-well assay, 1×10^4 cells resuspended in serum-free medium were seeded into the upper chamber of an insert with an 8.0-μm pore size of polycarbonate membrane (BD Biosciences) and then placed into the bottom chamber containing 10% FBS as chemoattractant. Cells were allowed to migrate for 24 hours followed by methanol fixation and Giemsa staining (MERCK Darmstadt, Germany). Un-migrated cells on the membrane apical side were removed. Migrated cells were photographed with a phase contrast microscope and the number was counted by using Image-Pro Plus software. All experiments were performed in triplicates. […] Images in the top panel of FIG. 3e are representative of three independent experiments performed in triplicate. Quantification of average migrated cell number is shown in bar graphs below the images (±SEM).
as §1

[3] = test system: Rac1 interaction with Rac1-specific GEFs TrioN, GEF-H1 and Tiam1; conditions: cited from earlier work

## CCN(CC)CCCC(C)Nc1nc(C)cc(Nc2ccc3nc(C)cc(N)c3c2)n1 (centres unmarked) [NSC23766]
[1]
  cell mobility (wound closure): decreased
[2]
  lamellipodia extension: inhibited lamellipodia extension

## C[C@]12CC[C@@H]3c4ccc(O)cc4CC[C@H]3[C@@H]1CC[C@@H]2O [estrogen, 17β-estradiol]
LMCD1-K237R
  expression of LMCD1-K237R: up-regulate
PLC/PRF/5 cells
  cell migration: up-regulate

## Rac1 Inhibitor W56: peptide comprising residues 45-60 of the guanine nucleotide exchange factor (GEF) recognition/activation site of Rac1 (MVDGKPVNLGLWDTAG; UniProt P63000 45-60, looked up, fragment)
[3]
  inhibition of Rac1 interaction with Rac1-specific GEFs TrioN, GEF-H1 and Tiam1: selectively inhibits
